From patent US5952327A, “Phosphonic acid-substituted benzazepinone-n-acetic acid derivatives process for their preparation and pharmaceutical compositions comprising them” (Solvay Pharmaceuticals GmbH, priority 1997, dated 1999)

Legend:
[1] = system: endothelin-converting enzyme (ECE); assay: In-vivo ECE inhibitory action: blood pressure increase induced by BIG-ET in rats; design: species or system male CD rats
Method: ET is an endogenous strongly vasoconstrictory active substance. An increase in the ET level leads to a blood pressure increase. On infusion of BIG-ET, a blood pressure increase takes place to the extent at which ET is formed from this by ECE-catalysed cleavage. As a measure of the ECE-inhibitory action of the substances, their inhibitory action on the blood pressure increase induced by infusion of BIG-ET was determined.
The experiments were carried out using male CD® rats from Charles River Wiga having a body weight of 220-280 g. Under ketamine/xylazine anaesthesia, a catheter for substance administration was tied into the left jugular vein and a second for the measurement of the blood pressure was tied into the left carotid artery of the animals. After a recovery time of 30 minutes, the test substance was administered intravenously (i.v.) or intraduodenally (i.d.) to the animals as a solution. After administration of the test substances, the animals each received BIG-ET in a dose of 0.5 nmole/kg intravenously. The period between administration of the test substance and the administration of BIG-ET was 5 minutes in each case on i.v. administration, 15 minutes in each case on i.d. administration of the test substances of Example Nos. 18 and 22, and 30 minutes in each case on i.d. administration of the test substances of Example Nos. 8 and 20. During the next 30 minutes, the systolic and the diastolic blood pressure were recorded every 5 minutes. With untreated animals, the infusion of 0.5 nmol/kg of big endothelin leads reproducibly to a drastic blood pressure increase, which lasts about 30 minutes. The maximum of the blood pressure increase is reached after about 5 minutes.
In the following Table 2, the maximum increase in the blood pressure after BIG-ET administration is indicated for control animals treated with placebo solution and for animals which have been pretreated with the test substance solutions in different doses.

[2] = system: diuresis/natriuresis in volume-loaded rats; assay: In-vivo effect on diuresis/natriuresis in volume-loaded rats; design: species or system male Wistar rats; details: 60 min collection
Method: The in-vivo activity was investigated in volume-loaded rats. In this experiment, a high cardiac filling pressure was produced by an infusion of isotonic sodium chloride solution, as a consequence of which ANP release and, as a result, diuresis/natriuresis occurred.
The experiments were carried out using male Wistar rats having a body weight of 200-400 g. Under neuroleptic analgesia (fentanyl; Hypnorm®, manufacturer Janssen), a catheter was tied into the right femoral vein for the background infusion and the volume loading with isotonic sodium chloride solution. After opening the abdomen, a second catheter was inserted in the bladder and the urethra was tied off so that a measurement of urinary volume, natriuresis and kaliuresis was possible.
The abdomen was closed again, and the animals received a continuous infusion of sodium chloride solution (0.5 ml/100 g of body weight) over the total experimental period of 2 hours. After an equilibration period of 30 minutes, urine samples were collected three times in each case over a period of 10 minutes in a preliminary phase before test substance administration. These preliminary values ("predrug" values) were determined in order to check that a continuous urine flow was taking place in the test animals.
The solutions comprising the test substances were then administered intravenously (bolus injection in the femoral vein) or orally (by means of stomach tube) to groups of 10 rats in each case. For both administration forms, one control animal group in each case received only placebo solutions which contained no active compound. 5 minutes after i.v. administration or 120 minutes after oral administration of the substances, the rats were loaded i.v. with an increased volume of sodium chloride solution (2 ml/100 g of body weight in 2 minutes) and the urine was collected over a period of 60 minutes. The amounts of urine produced in this period were determined, and the sodium and potassium contents contained therein were measured. From the amounts of urine produced, the increase in excretion which took place under volume loading is read off compared with the preliminary values.
In the following Table 1, the increases in urine excretion which have taken place under volume loading after administration of the test substances are indicated in % relative to the urine excretion which has taken place under volume loading after administration of placebo. Furthermore, the amounts of sodium and potassium excreted under volume loading after test substance administration are also indicated in % of the amounts of sodium and potassium excreted under volume loading after administration of placebo. The example numbers in Tables 1 and 2 relate to the subsequent synthesis examples.

[3] = Determination of the minimum toxic dose (i.v.) in rats; type: in vivo; details: 215 mg/kg i.v., observed for one week
Method: I.v. maximum doses of 215 mg/kg of the test substances (dissolved in 0.1 N aqueous NaOH solution, whose pH had been adjusted to 7.1) were administered to groups of 10 rats each of 250 g body weight (age 5 to 6 weeks). From the time of administration, the animals were carefully observed for 5 hours for clinically recognizable signs of toxicity. Moreover, they were observed twice daily until one week had passed. After expiry of this week, each individual animal was completely dissected and all organs were examined macroscopically. If death or severe toxic symptoms was observed, increasingly smaller doses were administered to further rats until toxic symptoms no longer occured. The lowest dose which caused death or severe toxic symptoms was determined to be the minimum toxic dose.

[4] = target: neutral endopeptidase (NEP) (E.C. 3.4.24.11) (Homo sapiens, UniProt P08473); assay: In-vitro NEP inhibitory action (hydrolytic degradation of Met-encephalin); type: biochemical; details: purified NEP, Met-encephalin substrate, pH 7.4, 37° C.; read-out: IC50 value for NEP inhibition
neutral endopeptidase (NEP) (E.C. 3.4.24.11), sequence (P08473 whole entry, species assumed): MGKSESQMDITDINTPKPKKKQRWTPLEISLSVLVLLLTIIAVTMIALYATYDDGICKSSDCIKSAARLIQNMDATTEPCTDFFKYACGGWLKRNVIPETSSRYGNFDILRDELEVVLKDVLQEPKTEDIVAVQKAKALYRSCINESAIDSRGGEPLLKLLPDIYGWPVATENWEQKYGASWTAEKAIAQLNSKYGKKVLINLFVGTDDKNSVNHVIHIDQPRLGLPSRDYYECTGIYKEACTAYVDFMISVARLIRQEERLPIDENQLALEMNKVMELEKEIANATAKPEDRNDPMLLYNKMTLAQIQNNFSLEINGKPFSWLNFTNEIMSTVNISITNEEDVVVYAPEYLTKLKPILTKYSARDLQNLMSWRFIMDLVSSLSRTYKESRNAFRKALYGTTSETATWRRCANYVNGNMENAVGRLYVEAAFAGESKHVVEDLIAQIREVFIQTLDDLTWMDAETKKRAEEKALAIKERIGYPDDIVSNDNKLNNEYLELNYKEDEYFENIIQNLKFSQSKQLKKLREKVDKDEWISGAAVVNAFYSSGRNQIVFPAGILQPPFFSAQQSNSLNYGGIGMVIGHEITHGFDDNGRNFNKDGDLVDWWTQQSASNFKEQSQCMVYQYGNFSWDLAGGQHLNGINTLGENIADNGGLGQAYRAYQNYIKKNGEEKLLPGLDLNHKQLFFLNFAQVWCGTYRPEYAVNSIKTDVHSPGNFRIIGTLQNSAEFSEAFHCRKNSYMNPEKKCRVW
Method: In this test, the measure of the inhibitory activity of the substances determined was their IC50 value. The IC50 value of a test substance having enzyme-inhibitory activity is that concentration of the test substance at which 50% of the enzymatic activity of the NEP is blocked.
To carry out the test, respective 100 μl samples of various incubation solutions comprising 10 ng of purified NEP (E.C. 3.4.24.11) and different amounts of test substance and 20 μl substrate (Met-encephalin) and 50 mM tris buffer (tris(hydroxymethyl)aminomethane/HCl, pH 7.4) were prepared. […]
The incubation solutions were incubated for 30 minutes at 37° C. in a shaking water bath. […] The stopped incubation solution was then centrifuged at 12,000×g for 3 minutes, and the concentrations of unreacted substrate and of hydrolysis products formed by the enzymatic reaction were determined in the supernatant. For this purpose, samples of the respective supernatants were separated by high-pressure liquid chromatography (HPLC) on hydrophobicized silica gel, and the products of the enzymatic reaction and unreacted substrate were determined photometrically at a wavelength of 205 nm. […]
The IC50 value of the test substances was calculated in a known manner from the concentrations of hydrolysis products and unreacted substrate measured in the different samples.

[5] = 30 μmol/kg i.d., 30 min before BIG-ET 0.5 nmole/kg i.v., control 40
[6] = 30 μmol/kg i.d., 30 min before BIG-ET 0.5 nmole/kg i.v., control 61
[7] = 30 μmol/kg i.d., 15 min before BIG-ET 0.5 nmole/kg i.v., control 40
[8] = 30 μmol/kg i.d., 15 min before BIG-ET 0.5 nmole/kg i.v., control 61

Row | SMILES | Blood pressure increase after BIG-ET administration, diastolic pressure (maximum) [1, 5] [mm Hg] | Blood pressure increase after BIG-ET administration, systolic pressure (maximum) [1, 6] [mm Hg] | Increase in urine excretion under volume loading after administration of test substance in % relative to the urine excretion under volume loading after administration of placebo ([2]; 30.0 μmole/kg p.o.) [%] | K excretion under volume loading: amount excreted after administration of test substance in % of the amount excreted after administration of placebo ([2]; 30.0 μmole/kg p.o.) [%] | Na excretion under volume loading: amount excreted after administration of test substance in % of the amount excreted after administration of placebo ([2]; 30.0 μmole/kg p.o.) [%] | Blood pressure increase after BIG-ET administration, diastolic pressure (maximum) [1, 7] [mm Hg] | Blood pressure increase after BIG-ET administration, systolic pressure (maximum) [1, 8] [mm Hg] | further results
1 | CCOP(=O)(CC1(C(=O)N[C@H]2CCc3ccccc3N(CC(=O)OC(C)(C)C)C2=O)CCCC1)OCc1ccccc1 (stereo partly drawn) [Example 8, tert-Butyl (3S)-3-(1-benzylethylphosphonomethylcyclopentane-1-carbonylamino)-2,3,4,5-tetrahydro-2-oxo-1H-1-benzazepine-1-acetate] | 26 | 25 | – | – | – | – | – | –
2 | CCOC(=O)CN1C(=O)[C@@H](NC(=O)C2(CP(=O)(O)O)CCCC2)CCc2ccccc21 [Example 13, Ethyl (3S)-3-(1-phosphonomethylcyclopentane-1-carbonylamino)-2,3,4,5-tetrahydro-2-oxo-1H-1-benzazepine-1-acetate] | – | – | 168 | 87 | 128 | – | – | –
3 | CC(C)(C)OC(=O)CN1C(=O)[C@@H](NC(=O)C2(CP(=O)(O)O)CCCC2)CCc2ccccc21 [Example 20, tert-Butyl (3S)-3-[1-phosphonomethylcyclopentane-1-carbonylamino)-2,3,4,5-tetrahydro-2-oxo-1H-1-benzazepine-1-acetate] | 37 | 50 | – | – | – | – | – | –
4 | CCOP(=O)(O)CC1(C(=O)NC2CCc3ccccc3N(CC(=O)O)C2=O)CCCC1 (stereo not shown) [Example 22] | – | – | 127 | 106 | 161 | 21 | 36 | –
5 | O=C(O)CN1C(=O)[C@@H](NC(=O)C2(CP(=O)(O)O)CCCC2)CCc2ccccc21 [Example 2, (3S)-3-(1-Phosphonomethylcyclopentane-1-carbonylamino)-2,3,4,5-tetrahydro-2-oxo-1H-1-benzazepine-1-acetic acid] | – | – | – | – | – | – | – | Blood pressure increase after BIG-ET administration, diastolic pressure (maximum) ([1]; 1 mg/kg i.v., 5 min before BIG-ET 0.5 nmole/kg i.v., control 32): 23 mm Hg; Blood pressure increase after BIG-ET administration, systolic pressure (maximum) ([1]; 1 mg/kg i.v., 5 min before BIG-ET 0.5 nmole/kg i.v., control 65): 38 mm Hg; Blood pressure increase after BIG-ET administration, diastolic pressure (maximum) ([1]; 3 mg/kg i.v., 5 min before BIG-ET 0.5 nmole/kg i.v., control 32): 14 mm Hg; Blood pressure increase after BIG-ET administration, systolic pressure (maximum) ([1]; 3 mg/kg i.v., 5 min before BIG-ET 0.5 nmole/kg i.v., control 65): 27 mm Hg; Blood pressure increase after BIG-ET administration, diastolic pressure (maximum) ([1]; 10 mg/kg i.v., 5 min before BIG-ET 0.5 nmole/kg i.v., control 32): 0.4 mm Hg; Blood pressure increase after BIG-ET administration, systolic pressure (maximum) ([1]; 10 mg/kg i.v., 5 min before BIG-ET 0.5 nmole/kg i.v., control 65): -1 mm Hg; signs of toxicity at maximum dose [3]: no significant signs of toxicity; Increase in urine excretion under volume loading after administration of test substance in % relative to the urine excretion under volume loading after administration of placebo ([2]; 6.0 μmole/kg i.v.): 117%; K excretion under volume loading: amount excreted after administration of test substance in % of the amount excreted after administration of placebo ([2]; 6.0 μmole/kg i.v.): 116%; Na excretion under volume loading: amount excreted after administration of test substance in % of the amount excreted after administration of placebo ([2]; 6.0 μmole/kg i.v.): 147%; Increase in urine excretion under volume loading after administration of test substance in % relative to the urine excretion under volume loading after administration of placebo ([2]; 20.0 μmole/kg i.v.): 149%; K excretion under volume loading: amount excreted after administration of test substance in % of the amount excreted after administration of placebo ([2]; 20.0 μmole/kg i.v.): 182%; Na excretion under volume loading: amount excreted after administration of test substance in % of the amount excreted after administration of placebo ([2]; 20.0 μmole/kg i.v.): 246%; IC50 [4]: 1.7 nM
6 | CCOP(=O)(CC1(C(=O)N[C@H]2CCc3ccccc3N(CC(=O)OC(C)(C)C)C2=O)CCCC1)OCOC(=O)C(C)(C)C (stereo partly drawn) [Example 18, tert-Butyl (3S)-3-[1-(pivaloyloxymethylethylphosphono-methyl)cyclopentane-1-carbonylamino]-2,3,4,5-tetrahydro-2-oxo-1H-benzazepine-1-acetate] | – | – | – | – | – | 17 | 19 | –
